Results on 9 compounds are retold here after patent EP4752152A1, “STEROID COMPOUND, AND PREPARATION METHOD THEREFOR AND USE THEREOF” (Cholesgen (Shanghai) Co.Ltd., priority 2023, dated 2025).

Structures are written as SMILES. Where two headings read alike, the source gives them in different places.

The subject of assay [1] is Fatty Acid Synthase (FASN) gene. As to the kind of experiment: Inhibition of FASN gene expression (qPCR) in Huh-7 cells. The format is cell-based, human. The settings on record: Homo sapiens, Huh-7 cells, starvation medium, 16 hours, qPCR, class symbols, read-out: FASN IC50. On the procedure:
Huh-7 cells (purchased from ATCC) were cultured in DMEM medium (containing 10% fetal bovine serum LONSERA S711-001S) at 37°C in a 5% CO2 incubator. After 24 hours, the original medium was aspirated and replaced with DMEM starvation medium (containing 5% lipoprotein deficient serum (LPDS), 2 µM lovastatin, and 10 µM mevalonate). The control group was treated with dimethyl sulfoxide (DMSO), while the compound treatment groups were treated with different concentrations of compounds. The highest concentration of the compound was 3000 nM, with 3-fold dilutions, totaling 5 concentrations. The cells were cultured for 16 hours. Cell lysis was performed, followed by reverse transcription from cells to cDNA, and qPCR was performed to detect the expression of the SREBP target gene Fatty Acid Synthase (FASN) gene (FASN gene forward primer sequence: 5'-[…]-3', reverse primer sequence: 5'-[…]-3'). The IC50 was calculated. The test data for each test compound were analyzed using Prism software (with the DMSO-treated group as the reference to calculate the compound inhibition rate, fitted using the Prism log(inhibitor) vs. responseVariable slope (four-parameter) model, calculation formula: Y = Bottom + (Top - Bottom)/(1 + 10^((LogIC50 - X) × HillSlope))), to obtain the IC50 parameters of the compounds. Table 4: Inhibition results of FASN gene expression by compounds from some examples

Another assay relates to SREBP pathway. The assay can be described thus: SREBP luciferase reporter gene system (SRE-luciferase assay). The settings on record: Homo sapiens, Huh-7/SRE-luc cells, sterol-deficient medium, 0.01-10 µM. Type of assay: cell-based, human. A digest of the protocol:
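Huh-7 cells stably carrying LDLR promoter-luciferase plus GFP were treated 16 h in sterol-deficient medium (5% lipoprotein-deficient serum, 2 µM lovastatin, 10 µM mevalonic acid) at 0.01–10 µM. Luciferase/GFP ratio measured as pathway activity; inhibition versus DMSO fitted to a four-parameter model for IC50.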
For orientation: A reporter such as luciferase makes a cellular process visible.

One may read the IC50 as the concentration at which inhibition is half-maximal. With `C[C@H](CCCC(O)c1nc2cnccc2n1C)[C@H]1CC[C@H]2[C@H]3[C@H](CC[C@]12C)[C@@]1(C)CC[C@H](O)[C@H](O)[C@@H]1CC3(F)F` (stereo partly drawn) [Compound 311, (1R,3aS,3bS,5aR,6R,7 S,9aR,9bS,11aR)-4,4-Difluoro-1-[(2R)-6-hydroxy-6-(1-methylimidazo[5,4-c]pyridin-2-yl)hexan-2-yl]-9a,11a-dimethylhexadecahydro-1H-cyclopenta[1,2-a]phenanthrene-6,7-diol], the IC50 in assay [1] (Huh-7, 16 h) is less than 200 nM; in the assay on SREBP pathway (Huh-7, 16 h) it was 0.072 µM.

Consider `COc1ccc(C(O)CCC[C@@H](C)[C@H]2CC[C@H]3C4=C(F)C[C@H]5[C@@H](O)[C@@H](O)CC[C@]5(C)[C@H]4CC[C@]23C)c(F)c1` (stereo partly drawn) [Compound 68, (1R,3aR,5aR,6R,7S,9aR,9bR,11aR)-4-fluoro-1-[(2R)-6-(2-fluoro-4-methoxyphenyl)-6-hydroxyhexan-2-yl]-9a,11a-dimethyl-2,3,3a,5,5a,6,7,8,9,9a,9b,10,11,11a-tetradecahydro-1H-cyclopenta[1,2-a]phenanthrene-6,7-diol], for which the IC50 in assay [1] (Huh-7, 16 h) was 200 to 500 nM; in the assay with SREBP pathway (Huh-7, 16 h) it was 0.434 µM.

Turning to `C[C@H](CCCC(O)c1nc2cccc(Br)c2n1C)[C@H]1CC[C@H]2[C@H]3[C@H](CC[C@]12C)[C@@]1(C)CC[C@H](O)[C@H](O)[C@@H]1CC3(F)F` (stereo partly drawn) [Compound 212, (1R,3aS,3bS,5aR,6R,7 S,9aR,9bS,11aR)-1-[(2R)-6-(7-Bromo-1-methylbenzo[d]imidazol-2-yl)-6-hydroxyhexan-2-yl]-4,4-difluoro-9a,11a-dimethylhexadecahydro-1H-cyclopenta[1,2-a]phenanthrene-6,7-diol], the IC50 in assay [1] (Huh-7, 16 h) was 200 to 500 nM; with SREBP pathway (Huh-7, 16 h), 0.08 µM.

On to `COc1ccnc(F)c1[C@H](O)CCC[C@@H](C)[C@H]1CC[C@H]2[C@H]3[C@H](CC[C@]12C)[C@@]1(C)CC[C@H](O)[C@H](O)[C@@H]1CC3(F)F` (single isomer, unassigned) [Compound 230], for which the IC50 was less than 200 nM in assay [1] (Huh-7, 16 h) and 0.062 µM in the assay on SREBP pathway (Huh-7, 16 h).

As to `COc1nc(F)cc(F)c1[C@@H](O)CCC[C@@H](C)[C@H]1CC[C@H]2[C@H]3[C@H](CC[C@]12C)[C@@]1(C)CC[C@H](O)[C@H](O)[C@@H]1CC3(F)F` (single isomer, unassigned) [Compound 255], the half-maximal inhibitory concentration (IC50) in assay [1] (Huh-7, 16 h) is 200 to 500 nM; in the assay on SREBP pathway (Huh-7, 16 h) it was 0.107 µM.

For `C[C@H](CCCC(O)c1ccc(F)nc1OC1CC1)[C@H]1CC[C@H]2[C@H]3[C@H](CC[C@]12C)[C@@]1(C)CC[C@H](O)C[C@@H]1CC3(F)F` (some centres unmarked) [Compound 335], the IC50 was less than 200 nM in assay [1] and 0.045 µM in the assay on SREBP pathway (16 hours).

For the compound `CCOc1nc(F)ccc1[C@@H](O)CCC[C@@H](C)[C@H]1CC[C@H]2[C@H]3[C@H](CC[C@]12C)[C@@]1(C)CC[C@H](O)[C@H](O)[C@@H]1CC3(F)F` (single isomer, unassigned) [Compound 289], the IC50 is less than 200 nM in assay [1] (Huh-7, 16 h) and 0.342 µM in the assay on SREBP pathway (Huh-7, 16 h).

Take `COc1cc(F)cc(F)c1C(O)CCC[C@@H](C)[C@H]1CC[C@H]2[C@H]3[C@H](CC[C@]12C)[C@@]1(C)CC[C@H](O)[C@H](O)[C@@H]1CC3(F)F` (single isomer, unassigned) [Compound 200, (1R,3aS,3bS,5aR,6R,7S,9aR,9bS,11aR)-1-[(2R,6S)-6-(4,6-difluoro-2-methoxyphenyl)-6-hydroxyhexan-2-yl]-4,4-difluoro-9a,11a-dimethylhexadecahydro-1H-cyclopenta[1,2-a]phenanthrene-6,7-diol or (1R,3aS,3bS,5aR,6R,7S,9aR,9bS,11aR)-1-[(2R,6R)-6-(4,6-difluoro-2-methoxyphenyl)-6-hydroxyhexan-2-yl]-4,4-difluoro-9a, 11a-dimethylhexadecahydro-1H-cyclopenta[1,2-a]phenanthrene-6,7-diol]: the half-maximal inhibitory concentration (IC50) in assay [1] (Huh-7, 16 h) is less than 200 nM; in the assay with SREBP pathway (Huh-7, 16 h), 0.053 µM.

`COc1ncc(F)cc1[C@H](O)CCC[C@@H](C)[C@H]1CC[C@H]2[C@H]3[C@H](CC[C@]12C)[C@@]1(C)CC[C@H](O)[C@H](O)[C@@H]1CC3(F)F` (single isomer, unassigned) [Compound 231]: the IC50 in the assay on SREBP pathway (Huh-7, 16 h) is 0.062 µM.
